Measured values taken from US20160120915A1, “METHODS FOR MANIPULATING IMMUNE RESPONSES BY ALTERING MICROBIOTA” (NEW YORK UNIVERSITY, priority 2013, published 2016).
Where a name gives a salt, the structure may show the parent alone.

Key:
[1] = tested on: ileal tissue structure; experiment: Ileal atrophy scoring in H&E stained ileum; format: in vivo, C57BL/6J mice; conditions: 4-week old mice, n=5 each, p<0.05 Mann-Whitney U, vs control
Text: Atrophy was scored in hematoxylin and eosin (H&E) stained ileum samples from 4-week old control and STAT mice (n=5 each).
Ileal tissues from 4-week-old control and STAT mice were formalin fixed and paraffin embedded, cut, and stained with hemotoxylin and eosin (H&E). 4 slides were scored for ileal atrophy per mouse and the average score per mouse was averaged.

[2] = tested on: 547 genes related to immunology in ileal tissue; experiment: Ileal gene expression profiling via Nanostring Immunology Panel, STAT; format: in vivo, C57BL6J mice; conditions: for Significant Changes Down (ileal Nanostring) / Significant Changes Total (ileal Nanostring) / Significant Changes Up (ileal Nanostring): 8-week old mice
Protocol: RNA was extracted from ileal tissue using the miRNeasy mini kit (Qiagen, Redwood City, Calif., USA) at 8 weeks of age and the expression levels of 547 genes related to immunology were measured by nCounter GX Mouse Immunology Kit (Nanostring Technologies, Seattle, Wash., USA). Significant differences between treatment and control were determined by t-test. For functional characterization, the significant changes were analyzed by Ingenuity Pathway Analysis (Qiagen, Redwood City, Calif.).
Specifically, STAT decreased 111 and 74 genes and increased only 1 and 7 genes in male and female mice, respectively, with numerous consistencies across gender (FIG. 10A-C and Table 2).

[3] = tested on: ileum; experiment: EarlySTAT: ileal gene expression by qPCR in 4- and 8-week mice; format: in vivo, C57BL/6J mice; conditions: STAT vs control
Text: C57BL/6J (Jackson Labs, Bar Harbor, Me.) mice either received no antibiotics (control) or continuous STAT penicillin. Mice were weaned at 4 weeks onto normal chow (13.2% fat, 5053 PicoLab Rodent Diet 20, LabDiet, Brentwood, Mo.), then switched to a high fat diet (45% kcal from fat, D12451, Research Diets, New Brunswick, N.J.) at 6 weeks of life. Mice were sacrificed at 4, 8, and 18 weeks of age. The terminal[1 cm] ileum without Peyer's Patches [TI-] was collected for gene expression analysis by qPCR. The proximal 1 cm of ileum was used for histological analysis of tissue structure, and the remaining ileum was used to determine immunity phenotypes by flow cytometry.
C57BL6J mice were exposed to sub-therapeutic antibiotic treatment (STAT) with penicillin via their drinking water from birth, or no antibiotics (Control). Mice were fed a normal diet until 6 weeks of age, then they were fed high fat diet. 5 mice from each experimental group were sacrificed at 4 weeks, and 4 mice from each group were sacrificed at 8 weeks. The terminal[1 cm] ileum without Peyer's Patches [TI-] was collected for gene expression analysis by qPCR. The proximal 1 cm of ileum was used for histological analysis of tissue structure, and the remaining ileum was used to determine immunity phenotypes by flow cytometry. Ileal gene expression was also measured by microarray and the nCounter GX Mouse Immunology Kit (Nanostring Technologies, Seattle, Wash., USA).
Total RNA was extracted from mouse tissues using the RNeasy Mini Kit (Qiagen), according to the manufacturer's instructions. Total RNA was reverse transcribed to cDNA using the Verso™ cDNA Synthesis Kit (Thermo Scientific). To generate standards for expression analysis of each target gene, the cDNA region of interest was PCR-amplified and the PCR product was cloned into pGEM-T easy (Promega). qPCR was performed with LightCycler 480 SYBR Green I Master mix (Roche) and run in a LightCycler 480 system (Roche). Target mRNA was normalized to GAPDH mRNA as an internal control in each sample.
Ileal expression of T-bet [Th1], GATA3 [Th2], Foxp3 [Treg], and RORγt [Th17] (FIG. 4A), and IFNγ [Th1], IL-4 [Th2], TGFβ1 [Treg], and IL-17 [Th17] (FIG. 4B) (4-week; Control, n=4, STAT, n=5, 8-week; Control, n=3, STAT, n=4) was quantitated by qPCR and normalized by GAPDH expression. […] These studies provide evidence that low dose antibiotic exposure can be used to change immune effector T-cell populations and the effector molecules they produce.
Ileal expression of defensin β1, Reg3γ, and Relmβ (4-week; Control n=4, STAT n=5, 8-week; Control n=3, STAT n=4) was quantitated by qPCR and normalized by GAPDH expression. […] These findings provide examples of how the STAT exposure changed intestinal expression of antimicrobial peptide genes.
Ileal expression of the IgA J-chain, polymeric Ig receptor (pIgR), both related to polymeric IgA function, and TLR2 and TLR4 was quantitated by qPCR and normalized by GAPDH expression in 4- and 8-week STAT [4-week; Control n=3, STAT n=4, 8-week; Control n=3, STAT n=4].

[4] = tested on: terminal ileum; experiment: PAT: ileal gene expression profiling by whole genome microarray, 6-week mice; format: in vivo, C57BL/6 mice; conditions: 6-week PAT vs Control, T-test p<0.05 and fold change ≧1.2 or ≦0.8
Protocol: Ileal gene expression profiling of STAT, PAT, and control animal groups, was performed using the Affymetrix Genechip system (Affymetrix). Total RNA quality and quantity were determined using the Agilent 2100 Bioanalyser and Nanodrop ND-1000. Total RNA (100 ng) was used to prepare cDNA following the Affymetrix […] Express Kit labelling protocol (Affymetrix). Standardized array processing procedures recommended by Affymetrix were performed, including hybridization, fluidics processing and scanning of the Affymetrix MG-430 2.0 arrays. GeneSpring GX11 software (Agilent Technologies) was used to normalize the raw data (Affymetrix CEL files) by Robust Multichip Average algorithm (RMA).
1127 and 3065 reproducibly regulated genes were identified from ˜45,000 genes of the mouse genome by T-test (p<0.05) and fold change (≧1.2 or ≦0.8) in 6-week PAT (Panel A; Control vs Amoxicillin and Panel B; Control vs Tylosin), respectively (FIG. 22). DAVID analysis was performed using the regulated genes, and Gene Set Enrichment analysis (GSEA) was performed using whole gene data.
(C, n=3), amoxicillin (A, n=3), and tylosin treated mice (T, n=3).

[5] = 4- and 8-week, qPCR and microarray

## CC1(C)S[C@@H]2[C@H](NC(=O)COc3ccccc3)C(=O)N2[C@H]1C(=O)[O-].[K+] [STAT, penicillin VK]
[1]
  ileal atrophy: significantly more
[2]; STAT-Female vs control
  Significant Changes Down (ileal Nanostring): 74
  Significant Changes Total (ileal Nanostring): 81
  Significant Changes Up (ileal Nanostring): 7
[2]; STAT-Male vs control
  Significant Changes Down (ileal Nanostring): 111
  Significant Changes Total (ileal Nanostring): 112
[2]; STAT-Male vs control, n=4 per group, t-test <0.05
  Significant Changes Up (ileal Nanostring): 1
[2]; Shared: STAT-F + Recip-F
  Significant Changes Down, shared: 1
  Significant Changes Total, shared: 1
  Significant Changes Up, shared: 0
[2]; Shared: STAT-M + Recip-F
  Significant Changes Down, shared: 3
  Significant Changes Total, shared: 3
  Significant Changes Up, shared: 0
[2]; Shared: STAT-M + STAT-F
  Significant Changes Down, shared: 37
  Significant Changes Total, shared: 37
  Significant Changes Up, shared: 0
[3]; 4- and 8-week mice
  expression of all four transcription factors (T-bet, GATA3, Foxp3, RORγt): trended downwards
[3]; [5]
  ileal B cell markers (IgA J-chain, pIgR): significantly down-regulated
  ileal TLRs (TLR2, TLR4): downward trend
[3]; at 4- and 8-weeks, p<0.05
  ileal expression of IL-17 [Th17]: significantly down-regulated
  ileal expression of RORγt [Th17]: significantly down-regulated
  ileal expression of T-bet [Th1]: significantly down-regulated
[3]; at 4-weeks, p<0.05
  ileal expression of IFNγ [Th1]: significantly down-regulated
[3]; at 4 weeks, p<0.05
  ileal Relmβ expression: significantly lower
[3]; at 8-weeks, p<0.05
  ileal expression of GATA3 [Th2]: significantly down-regulated
  ileal expression of TGFβ1 [Treg]: significantly down-regulated
[3]; at 8 weeks, p<0.05
  ileal expression of all three antimicrobial peptides (defensin β1, Reg3γ, Relmβ): significantly lower

## CC[C@H]1OC(=O)C[C@@H](O)[C@H](C)[C@@H](O[C@@H]2O[C@H](C)[C@@H](O[C@H]3C[C@@](C)(O)[C@@H](O)[C@H](C)O3)[C@H](N(C)C)[C@H]2O)[C@@H](CC=O)C[C@@H](C)C(=O)/C=C/C(C)=C/[C@@H]1CO[C@@H]1O[C@H](C)[C@@H](O)[C@@H](OC)[C@H]1OC [Tylosin, Tylosin tartrate]
[4]
  reproducibly regulated genes out of ~45,000 genes of the mouse genome: 3065
